From publication PMC6277555, “Short Symmetric-End Antimicrobial Peptides Centered on β-Turn Amino Acids Unit Improve Selectivity and Stability” (Frontiers in Microbiology, 2018) come the findings set out here.

One data set deals with E. coli UB1005. The class given is cell-based, Escherichia coli. The method, then:
(§1) The minimal inhibitory concentration (MIC) was determined according to a previously described method ([Chou et al., 2016]). Bacteria were cultured overnight to mid-log phase in MHB at 37°C and then diluted to give final concentrations ranging from 2 × 10^5 to 7 × 10^5 CFU/mL. Then, 50 μL of serial twofold dilutions of the peptides were added to each well in 96-well microtiter plates with a mixed solution containing 0.01% acetic acid and 0.2% bovine serum albumin (BSA, Sigma) was used to dissolve and dilute the peptides. Then, equal amounts of bacterial aliquots were incubated with the above peptide solution for 18–24 h at 37°C. The experiment was performed in triplicate using three replicates for each peptide and each bacterium. The broth was employed as a negative control and the broth with microbial cells was used as a positive control. The lowest concentration of peptide that prevented visible turbidity was defined as the MIC.

Another data set has as its system S. typhimurium ATCC 7731. The class given is cell-based, Salmonella entericaserovar Typhimurium. The method, then:
as §1

For the next data set, the system named is S. pullorum C79-13. The class given is cell-based, Salmonella pullorum. The method, then: as §1
The next data set relates to S. aureus ATCC 43300. The class given is cell-based, Staphylococcus aureus. The method, then: as §1
Data set [1] relates to S. epidermidis ATCC 12228. The class given is cell-based, Staphylococcus epidermidis. The method, then:
as §1

A further data set relates to S. faecalis ATCC 29212. The class given is cell-based, Streptococcus faecalis. The method, then: as §1
Another data set deals with B. subtilis CMCC 63501. The class given is cell-based, Bacillus subtilis. The method, then: as §1
The next data set relates to hRBCs. In words: Hemolytic activity. The class given is cell-based, human. To be noted: peptide concentration resulting in 5% hemolysis of hRBCs; PBS, 1 h, 37°C. How it is done:
(§2) The hemolytic activity of the peptides was detected using a previously described modified method ([Wang et al., 2015]). One milliliter of fresh hRBCs was obtained from a healthy donor (Zhihua Wang, Harbin, China) in a polycarbonate tube containing heparin. The collected hRBCs were centrifuged at 1000 × g for 5 min at 4°C and resuspended in PBS buffer (pH 7.2). The hRBCs were washed three times and then incubated with an equal volume of the respective peptide dissolved in PBS for 1 h at 37°C. Then, the hRBC suspension was placed into a 96-well microtiter plater with 50 μL of tested peptide solution at different concentrations and the mixture was incubated for 1 h at 37°C. […] The minimum hemolytic concentrations (MHCs) were defined as the peptide concentrations resulting in 5% hemolysis.

Data set [2] has as its system Gram-negative and Gram-positive bacterial strains. In words: Geometric mean of MICs and therapeutic index. The class given is cell-based. How it is done:
as §2, §1

The subject of the next data set is E. coli. The experiment in a line: Time killing assay. To be noted: mean of three independent assays. The class given is cell-based, Escherichia coli. The method, then: (§3) The ability of peptides to kill bacterial cells was further investigated by analyzing the fraction of cell survival upon peptide treatment at various exposure times according to a previously described method ([Wiradharma et al., 2012]). Briefly, E. coli and S. aureus were treated at MIC and 2 × MIC concentrations with peptides. At various time periods (0, 5, 10, 30, 60, 90, 120, and 150 min), microbial suspensions were diluted at three different dilutions and plated on MHA plates. Microbial colonies were formed and counted after 24 h of incubation. The results were presented as the mean data from three independent assays.

Another data set concerns S. aureus. The experiment in a line: Time killing assay. The class given is cell-based, Staphylococcus aureus. The following applies: mean of three independent assays. The method, then:
as §3

The nature of data set [3]: LPS-binding assay (BODIPY-TR-cadaverine displacement). The following applies: BC displacement at the MIC concentration; relative to 10 μg/mL polymyxin B. More on the design: species or system Escherichia coli. The method, then: The binding affinities of peptides to LPS were examined using the BODIPY-TR-cadaverine fluorescent dye (BC, Sigma, United States) displacement assay, in which a probe bound to cell-free LPS results in dequenching of BC fluorescence. Stock solutions of LPS from E. coli O111:B4 (5 mg/mL; Sigma-Aldrich, China) and BC (2.5 mg/mL; Sigma-Aldrich, China) were prepared and diluted in Tris buffer (pH 7.4, 50 mM) to reach a final concentration of 50 μg/mL of LPS and 5 μg/mL BC. A 100 μL aliquot of the LPS-probe and peptide mixture (50 μL LPS and BC solutions at final concentrations of 25 μg/mL LPS and 2.5 μg/mL BODIPY-TR-cadaverine, 50 μL peptide with various concentrations ranging from 1 to 64 μM) was added in a sterile 96-well black plate. The fluorescence was measured on a spectrofluorophotometer (the Infinite 200 pro, Tecan, China) at excitation and emission wavelengths of 580 and 620 nm, respectively, with each test performed independently in triplicate. The values were converted to % ΔF (AU) using the following equation:
where Fobs is the observed fluorescence at a given peptide concentration, F0 is the initial fluorescence of BC with LPS in the absence of peptides, and F100 is the BC fluorescence with LPS cells upon addition of 10 μg/mL polymyxin B, which is a prototype LPS binder and was used as a positive control.

For data set [4], the system named is total genomic DNA from E. coli. In words: DNA binding assay (gel retardation). The arrangement: species or system Escherichia coli. To be noted: 1 h. How it is done:
Gel retardation experiments were performed as previously described ([Zhu et al., 2015]). The total genomic DNA from E. coli was extracted using the rapid bacterial genomic DNA isolation kit (Sangon Biotech, China). First, increasing concentrations of peptides were mixed with 400 ng of genomic DNA in 20 μL of binding buffer [5% glycerol, 10 mM Tris-HCl (pH 8.0), 1 mM EDTA, 1 mM dithiothreitol, 20 mM KCl, and 50 μg/mL bovine serum albumin] and incubated at 37°C for 1 h. Next, 4 μL of native loading buffer [10% Ficoll 400, 10 mM Tris-HCl (pH 7.5), 50 mM EDTA, 0.25% bromophenol blue, and 0.25% xylene cyanol] was mixed with the samples and a 12 μL aliquot was subjected to 1% agarose gel electrophoresis in 0.5× Tris borate-EDTA buffer (45 mM Tris-borate and 1 mM EDTA, pH 8.0). Finally, gel retardation was visualized using UVP bioimaging systems.

In brackets after ≈: the same amount, converted by molar mass. Residues, ends and D or L forms follow the SMILES beside them.

For `CC[C@H](C)[C@H](N)C(=O)N[C@@H](Cc1c[nH]cn1)C(=O)N[C@@H](CCCCN)C(=O)N[C@@H](Cc1ccccc1)C(=O)N[C@@H](Cc1c[nH]c2ccccc12)C(=O)N[C@@H](CCCNC(=N)N)C(=O)N[C@@H](CS)C(=O)N[C@@H](CCCNC(=N)N)C(=O)N[C@@H](CCCNC(=N)N)C(=O)N[C@@H](CCCNC(=N)N)C(=O)N[C@@H](Cc1ccccc1)C(=O)N[C@@H](CS)C(=O)N[C@@H](CCCNC(=N)N)C(=O)N[C@@H](Cc1c[nH]c2ccccc12)C(=O)N[C@@H](Cc1ccccc1)C(=O)N[C@@H](CCCCN)C(=O)N[C@@H](Cc1c[nH]cn1)C(=O)N[C@H](C(N)=O)[C@@H](C)CC` [PQ] (H-IHKFWRCRRRFCRWFKHI-NH2; N-terminus assumed), the MIC was 8 µM (≈ 20.6 µg/mL) against E. coli UB1005; 8 µM (≈ 20.6 µg/mL) against S. typhimurium ATCC 7731; 8 µM (≈ 20.6 µg/mL) in the data set with S. pullorum C79-13; 8 µM (≈ 20.6 µg/mL) with S. aureus ATCC 43300; 8 µM (≈ 20.6 µg/mL) in data set [1]; 16 µM (≈ 41.2 µg/mL) against S. faecalis ATCC 29212. For the same compound, the MIC with B. subtilis CMCC 63501 was 16 µM (≈ 41.2 µg/mL). Moreover, in the data set with hRBCs, the “MHC (minimum hemolytic concentration)” value was over 128 µM. For the same compound, the “GM (geometric mean of the MIC values)” value in [2] (all ten tested strains) worked out at 9.8 µM. This compound also registered a Therapeutic index in data set [2] (from MHC and GM) of 26.1. Also, the “Time to kill E. coli” value in the data set on E. coli (peptide at 1 × MIC) and in the data set on E. coli (peptide at 2 × MIC) was 30 min each time. For the same compound, the “Time to kill S. aureus” value in the data set on S. aureus (peptide at 1 × MIC) and in the data set with S. aureus (peptide at 2 × MIC) was 30 min in each case. In [3], the “LPS binding, fluorescence (% ΔF)” value was “above 80%”. The “Concentration showing DNA-binding ability” value in data set [4] was over 128 µM.
